Read-outs that look alike come from different tables or passages of the source.
What was measured:
human plasma IgG1 = molecular target: T1, human plasma IgG1 (Homo sapiens, UniProt P01857); experiment: Fluorescence anisotropy binding, Oregon Green labeled peptide
T1 construct: the individual human plasma IgG isoforms: IgG1, IgG2, IgG3, or IgG4; purchased Calbiochem; host or cells: human plasma
In short: (§1)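 Oregon Green-labeled peptides binding to human plasma IgG isoforms measured by fluorescence anisotropy. Buffers with 0.01% Tween 20: 10 mM sodium citrate pH 4.0 with 500 mM NaCl; Tris-HCl pH 7.5 with 500 mM NaCl; 10 mM sodium bicarbonate pH 9.5 with or without 500 mM NaCl.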

human plasma IgG2 = molecular target: T2, human plasma IgG2 (Homo sapiens, UniProt P01859); experiment: as above
T2 construct: the individual human plasma IgG isoforms: IgG1, IgG2, IgG3, or IgG4; purchased Calbiochem; host or cells: human plasma

human plasma IgG4 = molecular target: T3, human plasma IgG4 (Homo sapiens, UniProt P01861); experiment: as above
T3 construct: the individual human plasma IgG isoforms: IgG1, IgG2, IgG3, or IgG4; purchased Calbiochem; host or cells: human plasma
In short: as §1

bovine IgG = type: binding; settings: Table 11; unfractionated IgG
In short: (§2)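 Percent bound = control mass minus unbound mass, with unbound IgG read at A280 after 1–1.5 h room-temperature incubation with the peptide resin in PBST pH 7.2 or TBST pH 7.5. Bound IgG was eluted 30–60 min with 0.1 M citrate pH 4.0 and/or bicarbonate pH 8.5. Recovery is given as percent of total load.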

goat IgG = type: binding; settings: Table 11; unfractionated IgG
In short: as §2

human IgG1 = molecular target: T4, human IgG1 (Homo sapiens, UniProt P01857); type: binding; settings: Table 9; immobilized peptide, 5.0 mg/ml resin load
T4 construct: all human subtypes derived from myeloma patients; purchased Calbiochem 400120; host or cells: myeloma patients
In short: (§3)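 Read-out is A280 of unbound IgG (1.4 mg/ml extinction coefficient), with percent bound derived against non-filtered or negative controls. Targets were incubated with immobilized peptides in PBST or TBST for 1-1.5 h at room temperature. Hydrolyzed Sepharose and immobilized Protein A serve as negative and positive controls.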

human IgG2 = molecular target: T5, human IgG2 (Homo sapiens, UniProt P01859); type: binding; settings: Table 9; immobilized peptide, 5.0 mg/ml resin load
T5 construct: all human subtypes derived from myeloma patients; purchased Calbiochem 400122; host or cells: myeloma patients
In short: as §3

human IgG = type: binding; settings: Table 11; unfractionated IgG
In short: as §2

mouse IgG = type: binding; settings: Table 11; unfractionated IgG
In short: as §2

IgG3 = IgG3 (Homo sapiens, UniProt P01860); type: binding; design: all human subtypes derived from myeloma patients; purchased Calbiochem 400124; host or cells: myeloma patients; settings: Table 9; immobilized peptide, 5.0 mg/ml resin load
In short: as §3

IgG4 = IgG4 (Homo sapiens, UniProt P01861); type: binding; design: all human subtypes derived from myeloma patients; purchased Calbiochem 400126; host or cells: myeloma patients; settings: Table 9; immobilized peptide, 5.0 mg/ml resin load
In short: as §3

[1] = 10 nM Tris-HCl, 500 mM Sodium Chloride, pH 7.5, read-out: KD (μM) IgG1 pH 7.5 + salt
[2] = 10 mM Sodium Bicarbonate, 500 mM Sodium Chloride, pH 9.5, read-out: KD (μM) IgG1 pH 9.5 + salt
[3] = 10 mM Sodium Bicarbonate, pH 9.5, read-out: KD (μM) IgG1 pH 9.5 − salt
[4] = 10 mM Sodium Citrate, 500 mM Sodium Chloride, pH 4.0, read-out: KD (μM) IgG1 pH 4.0 + salt
[5] = 10 mM Sodium Citrate, pH 4.0, read-out: KD (μM) IgG1 pH 4.0 − salt
[6] = TBS, 0.01% Tween 20, pH 7.5, read-out: KD (μM) IgG1 TBS
[7] = 10 nM Tris-HCl, 500 mM Sodium Chloride, pH 7.5, read-out: KD (μM) IgG2 pH 7.5 + salt
[8] = 10 mM Sodium Bicarbonate, 500 mM Sodium Chloride, pH 9.5, read-out: KD (μM) IgG2 pH 9.5 + salt
[9] = 10 mM Sodium Bicarbonate, pH 9.5, read-out: KD (μM) IgG2 pH 9.5 − salt
[10] = 10 mM Sodium Citrate, 500 mM Sodium Chloride, pH 4.0, read-out: KD (μM) IgG2 pH 4.0 + salt
[11] = 10 mM Sodium Citrate, pH 4.0, read-out: KD (μM) IgG2 pH 4.0 − salt
[12] = 10 mM Tris-HCl, pH 7.5, read-out: KD (μM) IgG2 pH 7.5 − salt
[13] = TBS, 0.01% Tween 20, pH 7.5, read-out: KD (μM) IgG2 TBS
[14] = 10 nM Tris-HCl, 500 mM Sodium Chloride, pH 7.5, read-out: KD (μM) IgG4 pH 7.5 + salt
[15] = 10 mM Sodium Bicarbonate, 500 mM Sodium Chloride, pH 9.5, read-out: KD (μM) IgG4 pH 9.5 + salt
[16] = 10 mM Sodium Bicarbonate, pH 9.5, read-out: KD (μM) IgG4 pH 9.5 − salt
[17] = 10 mM Sodium Citrate, 500 mM Sodium Chloride, pH 4.0, read-out: KD (μM) IgG4 pH 4.0 + salt
[18] = 10 mM Sodium Citrate, pH 4.0, read-out: KD (μM) IgG4 pH 4.0 − salt
[19] = TBS, 0.01% Tween 20, pH 7.5, read-out: KD (μM) IgG4 TBS

T3 sequence (P01861 1-327 isoform P01861-1): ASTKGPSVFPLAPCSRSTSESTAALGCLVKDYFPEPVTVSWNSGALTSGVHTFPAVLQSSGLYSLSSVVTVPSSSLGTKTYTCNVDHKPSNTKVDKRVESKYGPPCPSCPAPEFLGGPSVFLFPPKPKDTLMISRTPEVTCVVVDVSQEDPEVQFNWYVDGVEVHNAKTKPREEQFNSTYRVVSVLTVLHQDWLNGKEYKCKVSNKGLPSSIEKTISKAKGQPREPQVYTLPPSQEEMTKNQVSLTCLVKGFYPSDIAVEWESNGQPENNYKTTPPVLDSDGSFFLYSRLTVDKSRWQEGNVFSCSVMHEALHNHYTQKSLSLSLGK
T1 sequence (P01857 1-330 isoform P01857-1): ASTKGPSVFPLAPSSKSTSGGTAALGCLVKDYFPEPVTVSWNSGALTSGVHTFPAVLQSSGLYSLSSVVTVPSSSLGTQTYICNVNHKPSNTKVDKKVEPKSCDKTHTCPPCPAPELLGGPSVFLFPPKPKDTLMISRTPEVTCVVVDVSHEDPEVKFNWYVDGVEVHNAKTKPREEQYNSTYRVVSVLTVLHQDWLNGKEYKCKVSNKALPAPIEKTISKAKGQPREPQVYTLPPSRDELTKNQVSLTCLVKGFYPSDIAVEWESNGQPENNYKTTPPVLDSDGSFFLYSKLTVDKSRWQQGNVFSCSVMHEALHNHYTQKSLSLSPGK
T2 sequence (P01859 1-326 isoform P01859-1): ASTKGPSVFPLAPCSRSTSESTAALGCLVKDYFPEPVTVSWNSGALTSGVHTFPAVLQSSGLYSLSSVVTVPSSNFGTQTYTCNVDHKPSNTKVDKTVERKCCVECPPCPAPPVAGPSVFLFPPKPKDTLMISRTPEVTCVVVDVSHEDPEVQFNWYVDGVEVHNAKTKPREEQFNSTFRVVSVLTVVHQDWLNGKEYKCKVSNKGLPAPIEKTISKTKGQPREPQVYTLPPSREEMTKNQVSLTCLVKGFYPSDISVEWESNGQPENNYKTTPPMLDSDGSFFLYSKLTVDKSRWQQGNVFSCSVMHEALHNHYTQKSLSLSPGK
Chain of IgG4 (P01861 1-327 isoform P01861-1): as the sequence (P01861 1-327 isoform P01861-1) above
Chain of IgG3 (P01860 1-377 isoform P01860-1): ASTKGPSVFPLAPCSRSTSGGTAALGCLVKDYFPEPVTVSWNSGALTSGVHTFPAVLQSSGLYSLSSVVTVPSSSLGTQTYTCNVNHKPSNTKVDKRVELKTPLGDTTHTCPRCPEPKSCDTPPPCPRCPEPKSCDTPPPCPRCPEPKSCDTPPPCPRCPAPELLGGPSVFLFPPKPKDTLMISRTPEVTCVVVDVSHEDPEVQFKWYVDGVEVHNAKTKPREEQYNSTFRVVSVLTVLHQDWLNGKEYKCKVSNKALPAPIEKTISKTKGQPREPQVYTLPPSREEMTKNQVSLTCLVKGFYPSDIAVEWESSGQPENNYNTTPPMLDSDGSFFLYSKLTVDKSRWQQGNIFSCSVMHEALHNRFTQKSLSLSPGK
T4 sequence (P01857 1-330 isoform P01857-1): as the sequence (P01857 1-330 isoform P01857-1) above
T5 sequence (P01859 1-326 isoform P01859-1): as the sequence (P01859 1-326 isoform P01859-1) above

CC(=O)N[C@@H](C)C(=O)NCC(=O)N[C@@H](CCCCN)C(=O)N[C@@H](Cc1ccc(O)cc1)C(=O)N[C@@H](Cc1c[nH]c2ccccc12)C(=O)N[C@H]1CSSC[C@@H](C(=O)N2CCC[C@H]2C(=O)N[C@@H](C)C(=O)N[C@@H](CC(N)=O)C(=O)N2CCC[C@H]2C(=O)NCC(=O)N2CCC[C@H]2C(=O)N[C@@H](CCC(=O)O)C(=O)NCC(=O)NCC(=O)NCC(=O)N[C@@H](CCCCN)C(N)=O)NC(=O)[C@H](C(C)C)NC(=O)CNC(=O)[C@H](Cc2c[nH]c3ccccc23)NC(=O)[C@H](CC(C)C)NC(=O)[C@H](CC(N)=O)NC1=O [DX395]
Kd (human plasma IgG1; [1]): > 10 µM | Kd (human plasma IgG1; [2]): > 10 µM | Kd (human plasma IgG1; [3]): > 10 µM | Kd (human plasma IgG1; [4]): > 10 µM | Kd (human plasma IgG1; [5]): > 10 µM | Kd (human plasma IgG1; 10 mM Tris-HCl, pH 7.5, read-out: KD (μM) IgG1 pH 7.5 − salt): > 10 µM | Kd (human plasma IgG1; [6]): > 10 µM | Kd (human plasma IgG2; [7]): > 10 µM | Kd (human plasma IgG2; [8]): > 10 µM | Kd (human plasma IgG2; [9]): > 10 µM | Kd (human plasma IgG2; [10]): > 10 µM | Kd (human plasma IgG2; [11]): > 10 µM | Kd (human plasma IgG2; [12]): > 10 µM | Kd (human plasma IgG2; [13]): > 10 µM | Kd (human plasma IgG4; [14]): > 10 µM | Kd (human plasma IgG4; [15]): > 10 µM | Kd (human plasma IgG4; [16]): > 10 µM | Kd (human plasma IgG4; [17]): > 10 µM | Kd (human plasma IgG4; [18]): > 10 µM | Kd (human plasma IgG4; 10 mM Tris-HCl, pH 7.5, read-out: KD (μM) IgG4 pH 7.5 − salt): > 10 µM | Kd (human plasma IgG4; [19]): > 10 µM | % IgG Capture - Batch Binding, Bovine IgG (bovine IgG): 0% | % IgG Capture - Batch Binding, Goat IgG (goat IgG): 0% | % IgG Capture - Batch Binding, Human IgG1 (human IgG1): 21% | % IgG Capture - Batch Binding, Human IgG2 (human IgG2): 2% | % IgG Capture - Batch Binding, Human IgG (human IgG): 19% | % IgG Capture - Batch Binding, Mouse IgG (mouse IgG): 0% | % IgG Capture - Batch Binding, Human IgG3 (IgG3): 85% | % IgG Capture - Batch Binding, Human IgG4 (IgG4): 4%

CC(=O)N[C@@H](C)C(=O)NCC(=O)N[C@@H](C)C(=O)N[C@@H](C)C(=O)N[C@H](C(=O)N[C@H]1CSSC[C@@H](C(=O)N[C@H](C(=O)N[C@@H](CC(=O)O)C(=O)N[C@@H](CO)C(=O)N2CCC[C@H]2C(=O)NCC(=O)N2CCC[C@H]2C(=O)N[C@@H](CCC(=O)O)C(=O)NCC(=O)NCC(=O)NCC(=O)N[C@@H](CCCCN)C(N)=O)[C@@H](C)O)NC(=O)[C@H](Cc2ccccc2)NC(=O)[C@H](Cc2c[nH]c3ccccc23)NC(=O)[C@H](CCC(N)=O)NC(=O)[C@H](Cc2ccc(O)cc2)NC(=O)[C@H](Cc2ccc(O)cc2)NC(=O)[C@H](Cc2c[nH]c3ccccc23)NC(=O)[C@H](Cc2ccc(O)cc2)NC(=O)[C@H](CO)NC(=O)[C@H]([C@@H](C)O)NC(=O)[C@H](CO)NC1=O)[C@@H](C)O [DX398]
Kd (human plasma IgG1; [1]): > 10 µM | Kd (human plasma IgG1; [2]): > 10 µM | Kd (human plasma IgG1; [3]): > 10 µM | Kd (human plasma IgG1; [4]): > 10 µM | Kd (human plasma IgG1; [5]): ~2 µM | Kd (human plasma IgG1; [6]): > 10 µM | Kd (human plasma IgG2; [7]): > 10 µM | Kd (human plasma IgG2; [8]): > 10 µM | Kd (human plasma IgG2; [9]): > 10 µM | Kd (human plasma IgG2; [10]): > 10 µM | Kd (human plasma IgG2; [11]): ~2 µM | Kd (human plasma IgG2; [12]): > 10 µM | Kd (human plasma IgG2; [13]): > 10 µM | Kd (human plasma IgG4; [14]): > 10 µM | Kd (human plasma IgG4; [15]): > 10 µM | Kd (human plasma IgG4; [16]): > 10 µM | Kd (human plasma IgG4; [17]): > 10 µM | Kd (human plasma IgG4; [18]): ~2 µM | Kd (human plasma IgG4; [19]): > 10 µM | % IgG Capture - Batch Binding, Bovine IgG (bovine IgG): 2% | % IgG Capture - Batch Binding, Goat IgG (goat IgG): 0% | % IgG Capture - Batch Binding, Human IgG1 (human IgG1): 6% | % IgG Capture - Batch Binding, Human IgG2 (human IgG2): 0% | % IgG Capture - Batch Binding, Human IgG (human IgG): 9% | % IgG Capture - Batch Binding, Mouse IgG (mouse IgG): 4% | % IgG Capture - Batch Binding, Human IgG3 (IgG3): 79% | % IgG Capture - Batch Binding, Human IgG4 (IgG4): 2%
